# Source: patent US20100222293A1, “MODULATION OF SPERM MOTILITY” (priority 2007, published 2010)
# System: sperm from asthenozoospermic subjects
# Experiment: Sperm motility parameters after incubation with extracellular ATP (automated cell motility analyzer)
# Assay type: cell-based, human
# Settings: 2.5 mM ATP, 60 minutes
# Method: Semen samples were collected after 3 days of sexual abstinence in sterile containers. After liquefaction at room temperature for 30 minutes, standard seminal parameters were examined according to the WHO laboratory manual [supra]. For sperm movement analysis, a semen aliquot (10 μl) was placed in a Makler chamber, ten different fields per chamber were randomly examined, and at least 100 sperm for each field of the chamber were scored. Percentages of motile sperm and movement characteristics were analysed using an automated analyzer at 37° C. (CellTrack VP110, Motion Analysis Corporation, Palo Alto, Calif., USA). Sperm velocity and kinetic parameters were evaluated for only motile sperm and were expressed as mean values. Standard deviations were calculated and P values of significance were determined by the Student's t-test. The following sperm parameters were determined: curvilinear velocity (VCL) (also referred to as track speed and is the velocity (in μm/sec) of a sperm along individual tracks; straight progressive velocity (VSL) (the average velocity (in μm/sec) measured in a straight line from the beginning to the end of track); amplitude of lateral head displacement (ALH) (mean width (in μm) of sperm head oscillation); and linearity coefficient (LIN=VSL/VCL×100) (the degree (in %) of straightness of the sperm track). To analyze the effects of extracellular ATP on motility parameters of sperm from the asthenozoospermic subjects, sperm samples from the subjects were washed once by the addition of BWW medium (Biggers-Whitten-Whittingham medium; 95 mM NaCl, 4.8 mM KCl, 1.7 mM CaCl2, 1.2 mM KH2PO4, 1.2 MgSO4, 25 NaHCO3, 5.6 mM fructose, 0.25 mM sodium pyruvate, 3.7 ml/l 60% sodium lactate syrup, 10^4 IU/ml penicillin, and 10 mg/ml streptomycin) and centrifugation at 800×g for 10 minutes. After centrifugation and discarding of the supernatant, the sperm pellets were suspended in BWW medium (at a concentration of 10×10^6 sperm/ml), divided into two equivalent aliquots, and allowed to recover for 15 minutes. One aliquot was then incubated at 37° C. with ATP (2.5 mM final concentration from a 100 mM stock solution made by diluting ATP with physiological solution (0.9% NaCl in distilled water) and the second aliquot was incubated at 37° C. with same amount of physiological solution only (as a negative control). After 60 minutes incubation, sperm motility parameters were determined as described above. The effects of extracellular ATP on sperm motility parameters of sperm from subjects with asthenozoospermia after washing from seminal fluid and resuspension in BWW medium (10×10^6 sperm/ml) were examined.
compound,measurement,setting,value
"Nc1ncnc2c1ncn2[C@@H]1O[C@H](COP(=O)(O)OP(=O)(O)OP(=O)(O)O)[C@@H](O)[C@H]1O [ATP, adenosine 5′-triphosphate]",effect on curvilinear velocity (VCL),,No significant effects
same,effect on lateral sperm head displacement (ALH),,No significant effects
same,progressive velocity (VSL),"37° C., washed sperm in BWW medium, 27 asthenozoospermic subjects, control 23.81±6.04, p=0.0024",28.85±7.27 μm/sec
same,linearity (LIN),"37° C., washed sperm in BWW medium, control 29.59±6.25, p=0.0004",37.7±7.9
